# Assay results taken from PMC7176929, “Meroterpenoids With Protein Tyrosine Phosphatase 1B Inhibitory Activities From the Fruiting Bodies of Ganoderma ahmadii” (Frontiers in Chemistry, 2020).
# Biological target: T1, recombinant PTP1B catalytic domain (Homo sapiens, UniProt P18031)
# T1 construct: made in house
# T1 sequence (P18031 3-277 limits assumed): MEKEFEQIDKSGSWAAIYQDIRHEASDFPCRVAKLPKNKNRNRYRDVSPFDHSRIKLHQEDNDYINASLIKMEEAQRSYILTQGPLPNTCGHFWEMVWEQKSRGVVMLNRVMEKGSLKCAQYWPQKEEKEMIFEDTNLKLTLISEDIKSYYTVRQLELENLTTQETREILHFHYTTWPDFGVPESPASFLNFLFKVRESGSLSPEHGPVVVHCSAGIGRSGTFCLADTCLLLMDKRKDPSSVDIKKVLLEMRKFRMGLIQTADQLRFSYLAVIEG
# Assay: PTP1B inhibition assay (pNPP substrate)
# Assay type: biochemical
# Settings: pNPP as substrate, absorbance at 405 nm, 37 °C; read-out: IC50, inhibitory activity against PTP1B
# Description: The expressed and purified methods of recombinant PTP1B catalytic domain were the same as references (Liu et al., [2018]). The dephosphorylation of p-nitrophenyl phosphate (pNPP) generated the product pNP, which can be monitored at an absorbance for 405 nm. The compounds were pre-incubated with the enzyme at 37 °C for 5 min. […] After incubation at 37°C for 15 min, the reaction was […] using 0.5 M pNPP (12.5 μL). After initializing the enzymatic reaction, the plate was then read every 20 s for 15 min in the microplate reader at 405 nm. […] The equation used was: [(Ablank-Asample)/Ablank] × 100%. The IC50 values were determined by linear or non-linear regression analysis of the concentration-response data curve.
row,IC50,SMILES
1,17 µM,"C/C(=C\CC/C(=C/CC/C(=C/C(=O)c1cc(O)ccc1O)C(=O)O)CO)COC(=O)/C=C/c1ccc(O)cc1 [Compound 1, Ganoduriporol F]"
2,20 µM,"C/C(=C\CCC(CO)CCC/C(=C/C(=O)c1cc(O)ccc1O)C(=O)O)COC(=O)/C=C/c1ccc(O)c(O)c1 (stereo not shown) [Compound 2, Ganoduriporol G]"
3,19 µM,"CC(=O)OCC(CC/C=C(/CC(=O)c1cc(O)ccc1O)C(=O)O)CC/C=C(\C)COC(=O)/C=C/c1ccc(O)cc1 (stereo not shown) [Compound 3, Ganoduriporol H]"
4,23 µM,"CC(=O)OCC(CC/C=C(\C)COC(=O)/C=C/c1ccc(O)cc1)CCC/C(=C/C(=O)c1cc(O)ccc1O)C(=O)O (stereo not shown) [Compound 4, Ganoduriporol I]"
